Assay [1] concerns the target T1, Human HDAC1 (Homo sapiens, UniProt Q13547).
T1 construct: full length with C-terminal His-tag and C-terminal FLAG-tag; His-tag (C); FLAG-tag (C); made in house; host or cells: baculovirus expression system (insect cells)
Kind of assay: Biochemical HDAC assay with acetylated AMC-labeled peptide substrate, HDAC1. The conditions noted are these: HDAC1, 2 hours at 30° C.; read-out: IC50 (nM) HDAC 1. As to the method: (§1) Activity against all zinc-dependent HDACs 1 to 11 was assessed by using an acetylated AMC-labeled peptide substrate. The substrate RHKKAc was used for all class I and IIb HDACs; for […], the substrate used was RHKAcKAc. […] All assays were based on the AMC-labeled substrate and developer combination.
(§2) The protocol involved a two-step reaction: first, the substrate with the acetylated lysine side chain is incubated with a sample containing HDAC activity, to produce the deacetylated products, which are then digested in the second step by the addition of developer to produce the fluorescent signal proportional to the amount of deacetylated substrates.
Human HDAC1 (GenBank Accession No. NM_004964), full length with C-terminal His-tag and C-terminal FLAG-tag, MW=56 kDa, expressed in baculovirus expression system.
(§3) Before use, 1 mg/mL BSA and DMSO are added.
(§4) Incubate for 2 hours at 30° C.
(§5) Stage 1: Deacetylation of substrate by incubation of HDAC enzymes with compounds
(§6) Stage 2: Development by addition of Developer to digest the deacetylated substrate, and generate the fluorescent color; Detection: 360/460 Ex/Em

Assay [2] has as its target T2, Recombinant human HDAC6 (Homo sapiens, UniProt Q9UBN7).
T2 construct: full length, MW=180 kDa, was expressed by baculovirus in Sf9 insect cells; GST (N); made in house; host or cells: Sf9 insect cells (baculovirus)
T2 sequence (Q9UBN7 1-1215): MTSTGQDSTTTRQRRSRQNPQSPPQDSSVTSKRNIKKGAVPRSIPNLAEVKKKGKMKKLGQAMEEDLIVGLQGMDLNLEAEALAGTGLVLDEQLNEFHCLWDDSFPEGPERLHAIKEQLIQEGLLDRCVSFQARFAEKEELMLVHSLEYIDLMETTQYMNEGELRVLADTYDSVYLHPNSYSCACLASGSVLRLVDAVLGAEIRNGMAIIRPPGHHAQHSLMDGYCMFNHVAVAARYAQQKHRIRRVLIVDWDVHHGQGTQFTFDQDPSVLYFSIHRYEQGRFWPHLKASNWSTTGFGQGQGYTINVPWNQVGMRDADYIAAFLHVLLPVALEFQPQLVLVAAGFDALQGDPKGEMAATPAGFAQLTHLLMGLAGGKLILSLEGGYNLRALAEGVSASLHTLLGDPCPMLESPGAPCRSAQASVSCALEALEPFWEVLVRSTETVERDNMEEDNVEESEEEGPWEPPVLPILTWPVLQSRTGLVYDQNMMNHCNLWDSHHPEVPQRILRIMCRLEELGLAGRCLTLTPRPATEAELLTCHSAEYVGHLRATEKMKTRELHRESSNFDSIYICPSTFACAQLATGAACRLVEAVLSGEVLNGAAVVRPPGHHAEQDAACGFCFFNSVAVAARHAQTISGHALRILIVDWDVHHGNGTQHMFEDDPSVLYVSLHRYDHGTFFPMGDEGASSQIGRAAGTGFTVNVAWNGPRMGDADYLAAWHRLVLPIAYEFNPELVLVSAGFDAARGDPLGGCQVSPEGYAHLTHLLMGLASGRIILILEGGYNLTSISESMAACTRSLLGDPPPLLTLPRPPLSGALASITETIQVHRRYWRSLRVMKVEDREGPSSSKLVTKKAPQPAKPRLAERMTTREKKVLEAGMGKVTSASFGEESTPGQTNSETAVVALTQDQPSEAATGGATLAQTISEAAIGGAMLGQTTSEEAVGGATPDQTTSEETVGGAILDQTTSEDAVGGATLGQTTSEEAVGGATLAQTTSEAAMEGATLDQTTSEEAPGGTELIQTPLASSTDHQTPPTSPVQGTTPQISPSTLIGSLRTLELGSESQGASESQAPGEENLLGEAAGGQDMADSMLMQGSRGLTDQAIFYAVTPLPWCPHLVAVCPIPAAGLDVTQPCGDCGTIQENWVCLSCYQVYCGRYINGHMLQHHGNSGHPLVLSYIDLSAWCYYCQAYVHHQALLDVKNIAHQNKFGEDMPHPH
Kind of assay: Biochemical HDAC assay with acetylated AMC-labeled peptide substrate, HDAC6. Conditions: HDAC6, 2 hours at 30° C.; read-out: IC50 (nM) HDAC 6. As to the method: as §1, §2
Recombinant human HDAC6 (GenBank Accession No. BC069243), full length, MW=180 kDa, was expressed by baculovirus in Sf9 insect cells using an N-terminal GST tag.
as §3, §4, §5, §6

Where only a bound is given, the exact number is not on record here.

T1 sequence (Q13547 whole entry): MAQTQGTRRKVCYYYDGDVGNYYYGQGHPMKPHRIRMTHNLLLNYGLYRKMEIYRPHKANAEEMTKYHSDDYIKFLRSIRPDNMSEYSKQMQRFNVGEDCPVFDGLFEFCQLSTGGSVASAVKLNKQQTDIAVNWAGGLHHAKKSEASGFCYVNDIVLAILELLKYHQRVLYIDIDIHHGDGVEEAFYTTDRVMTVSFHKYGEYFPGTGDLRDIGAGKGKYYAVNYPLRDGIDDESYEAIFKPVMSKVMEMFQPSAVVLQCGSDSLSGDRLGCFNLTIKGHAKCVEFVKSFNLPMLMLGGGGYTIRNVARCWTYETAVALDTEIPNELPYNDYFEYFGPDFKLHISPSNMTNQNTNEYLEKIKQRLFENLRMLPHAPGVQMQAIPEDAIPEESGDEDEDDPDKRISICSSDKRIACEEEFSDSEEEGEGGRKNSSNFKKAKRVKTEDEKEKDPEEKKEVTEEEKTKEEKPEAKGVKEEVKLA

With `Cc1nsc(N(Cc2ccc(C(=O)NO)c(F)c2)c2nc(C)ns2)n1` [Example B, 4-{[Bis(3-methyl-1,2,4-thiadiazol-5-yl)amino]methyl}-2-fluoro-N-hydroxybenzamide], the values for the IC50 in assay [1] and in assay [2] were over 10000 nM and at most 500 nM, respectively.

With `O=C(NO)c1ccc(CN(c2ccccn2)c2ccccn2)cc1` [Example A, 4-{[Bis(pyridin-2-yl)amino]methyl}-N-hydroxybenzamide], the results for the IC50 in assay [1] and in assay [2] were over 10000 nM and at most 500 nM, respectively.

For `Cn1ccc(N(Cc2ccc(C(=O)NO)cc2)c2ccccn2)n1` [Example E, N-Hydroxy-4-(((1-methyl-1H-pyrazol-3-yl)(pyridin-2-yl)amino)methyl)benzamide], the IC50 in assay [1] is 1000 to 10000 nM; in assay [2] it was at most 500 nM.

For `O=C(NO)c1ccc(CN(c2ccccn2)c2nncs2)cc1` [Example F, N-Hydroxy-4-((pyridin-2-yl(1,3,4-thiadiazol-2-yl)amino)methyl)benzamide], the IC50 was over 10000 nM in assay [1] and at most 500 nM in assay [2].

Regarding `Cc1noc(N(Cc2ccc(C(=O)NO)cc2)c2ccccn2)n1` [Example D, N-Hydroxy-4-(((3-methyl-1,2,4-oxadiazol-5-yl)(pyridin-2-yl)amino)methyl)benzamide], the results for the half-maximal inhibitory concentration (IC50) in assay [1] and in assay [2] were 1000 to 10000 nM and at most 500 nM, respectively.

On to `Cc1noc(N(Cc2ccc(C(=O)NO)c(F)c2)c2nc(C)ns2)n1` [Example C, 2-Fluoro-N-hydroxy-4-{[(3-methyl-1,2,4-oxadiazol-5-yl)(3-methyl-1,2,4-thiadiazol-5-yl)amino]methyl}benzamide], for which the values for the IC50 in assay [1] and in assay [2] were 1000 to 10000 nM and at most 500 nM, respectively.

`O=C(NO)c1ccc(CN(c2ccccn2)c2cnccn2)cc1` [Example G, N-Hydroxy-4-((pyrazin-2-yl(pyridin-2-yl)amino)methyl)benzamide]: the IC50 in assay [1] is over 10000 nM; in assay [2] it was at most 500 nM.

By IC50 is commonly meant the concentration at which inhibition is half-maximal.

Source of the values: patent publication US10870624B2, “Histone deacetylase inhibitors” (Karus Therapeutics Limited, priority 2013, dated 2020).
